Tests used:
Type in all cases: ADME, organism-based
[1] = Plasma concentration in HIV infected patient at 300 mg qd measured after 16.60 hrs by plasma based assay using HPLC; conditions: human
[2] = Plasma concentration in HIV infected patient at 400 mg qd measured after 13.06 hrs by plasma based assay using HPLC; conditions: human
[3] = Cmin in HIV infected patient at 400 mg qd measured after 13.06 hrs by plasma based assay using HPLC; conditions: human, read-out: Cmin
[4] = Cmin in HIV infected patient at 300 mg qd measured after 16.60 hrs by plasma based assay using HPLC; conditions: human, read-out: Cmin
[5] = Cmax in HIV infected patient at 400 mg qd measured after 13.06 hrs by plasma based assay using HPLC; set-up: dose 400 mg; conditions: human
[6] = Cmax in HIV infected patient at 300 mg qd measured after 16.60 hrs by plasma based assay using HPLC; set-up: dose 300 mg; conditions: human
Homo sapiens [7] = organism: Homo sapiens; test: Plasma concentration in HIV infected patient with HIV RNA of <50 copies/ml by dried blood spot assay using reversed-phase ultrahigh-performance liquid chromatography; conditions: in vivo
Homo sapiens [8] = organism: Homo sapiens; test: Plasma concentration in HIV infected patient with HIV RNA of >50 copies/ml by dried blood spot assay using reversed-phase ultrahigh-performance liquid chromatography; conditions: in vivo

Q: Which concentration at 16.6 h [1] does the source give for COC(=O)N[C@H](C(=O)N[C@@H](Cc1ccccc1)[C@@H](O)CN(Cc1ccc(-c2ccccn2)cc1)NC(=O)[C@@H](NC(=O)OC)C(C)(C)C)C(C)(C)C [ATAZANAVIR] here?
A: 1630 ng/mL

Q: What about the concentration at 13.06 h [2] of the same compound?
A: 465 ng/mL

Q: And the concentration at 13.06 h [3]?
A: 342 ng/mL

Q: What about the concentration at 16.6 h [4] of the same compound?
A: 196 ng/mL

Q: What about the Cmax [5] of the same compound?
A: 787 ng/mL

Q: What about the Cmax [6] of the same compound?
A: 7220 ng/mL

Q: What about the Cp (Homo sapiens [7]) of the same compound?
A: 1582 ng/mL

Q: And the Cp (Homo sapiens [8])?
A: 543 ng/mL

Source: ChEMBL document CHEMBL1671733, “Clinical evaluation of a dried blood spot assay for atazanavir” (Antimicrob Agents Chemother, 2010)
